Test results taken from patent US20260248869A1, “SILICONE GEL COMPOSITION OF WALNUT EXTRACT” (priority 2022, published 2026).

Assay: Confocal optical microscopy of Juglone penetration depth in human skin
Format: in vitro ADME
Conditions: epidermal region; signal disappeared at greater depths
Text: The penetration in human skin was also studied by confocal microscopy, using the fluorescence of the Juglone molecule exciting it with light of 488 nm and observing its fluorescence in a window from 510 to 702 nm. For this penetration study, a Leica microscope, model SPE Confocal Microscope was used, with a 10×lens. The location of the Juglone molecules in depth was established with this instrument (in perpendicular direction to the skin surface). The accumulation of Juglone at different depth levels causes the appearance of areas with different fluorescence intensity and allows to observe directly where the molecule is retained. It must be noted that white Caucasian skins were chosen to prevent interferences of basal fluorescence and thus clearly observe the fluorescence of the Juglone molecule.
The transdermal permeation study was performed according to the “Guidance document for the conduct of skin absorption studies”. OECD series on testing assessment. Number 28. ENV/JM/MONO (2004) 2.5 Mar. 2004. Using Franz type cells, of 1.80 cm in diameter, and a surface of 2.54 cm^2. The permeation membrane used was human skin of the abdominal area (0.400 mm thick) from repair surgery and previously treated. This thickness covers the epidermis and dermis above the vascular plexus. […]

For `O=C1C=CC(=O)c2c(O)cccc21` [Juglone, 5-hydroxy-1,4-naphthalenedione], which “Depth at which the specific fluorescence of Juglone is maintained” value is on record?
The value was “less than 120 μm”.
